Laboratory results taken from PubChem BioAssay (NCI).
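Briefly, cells in 96-well plates were exposed to five compound concentrations for 48 h, and endpoints were estimated by linear interpolation. GI50 = concentration required for 50% inhibition of growth. TGI: concentration producing complete growth inhibition.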

How the values were obtained:
Test in all cases: growth of human tumour cells (NCI), 48 h
[1] = system: SF-539 CNS
[2] = system: IGROV1 ovarian
[3] = system: HCT-116 colon
[4] = system: SK-MEL-28 melanoma
[5] = system: SR leukemia
[6] = system: NCI-H460 lung
[7] = system: SNB-75 CNS
[8] = system: T-47D breast
[9] = system: BT-549 breast
[10] = system: HS 578T breast

Row | Compound | TGI [1] [µM] | TGI [2] [µM] | TGI [3] [µM] | TGI [4] [µM] | TGI [5] [µM] | TGI [6] [µM] | TGI [7] [µM] | GI50 [1] [µM] | GI50 [2] [µM] | GI50 [3] [µM] | GI50 [4] [µM] | GI50 [5] [µM] | GI50 [7] [µM] | GI50 [8] [µM] | TGI [8] [µM] | GI50 [9] [µM] | TGI [9] [µM] | GI50 [10] [µM] | TGI [10] [µM] | GI50 [6] [µM]
1 | COc1ccc(OC(C)=O)c2c1CCC=CC2=O | 30.9 | 34.4 | 34.3 | 28.6 | 40.3 | 34.7 | 29.3 |  |  |  |  |  |  |  |  |  |  |  |  | 
2 | COc1ccccc1NC(=O)C1=C(C)NC(C)=C(C(=O)Nc2ccccc2OC)C1C1=CC=COC1 | 30.7 | > 100 | 17.2 | 74 |  | 16.3 | > 100 |  |  |  |  |  |  |  |  |  |  |  |  | 
3 | C=C=C(C(=O)OC)S(=O)c1ccccc1[N+](=O)[O-] (stereo not drawn) | > 100 | > 100 | > 100 |  |  | > 100 | > 100 |  |  |  |  |  |  |  |  |  |  |  |  | 
4 | COC1OC(CO)C(O)C(OC(C)=O)C1NC(=O)N(CCCl)N=O (stereo not drawn) | > 100 | > 100 | > 100 | > 100 |  | > 100 | > 100 |  |  |  |  |  |  |  |  |  |  |  |  | 
5 | OC(c1cc(-c2cccc(Cl)c2)nc2ccccc12)C1CCCCN1 (stereo not drawn) | 3.61 | 3.21 | 3.38 | 3.42 | 3.8 |  | 3.23 | 1.93 | 1.69 | 1.75 | 1.81 | 1.27 | 1.38 | 2.09 | 3.93 |  |  |  |  | 
6 | COC(=O)C(=O)C(C(=O)C(=O)Nc1cccc(C(C)=O)c1)c1nc2ccc([N+](=O)[O-])cc2[nH]c1=O (stereo not drawn) | > 100 | > 100 | > 100 | > 100 | > 100 | > 100 |  |  |  |  |  |  |  |  |  |  |  |  |  | 
7 | NC1=CC(=O)c2cccnc2C1=O | 3 | 3.29 | 3.36 | 3.21 | 3.69 | 3.25 | 2.58 | 1.62 | 1.28 | 1.45 | 1.7 | 0.729 | 1.21 |  |  | 1.58 | 2.98 | 2.28 | 8.17 | 1.23
8 | O=C(/C=C/c1ccco1)c1cc(F)c(Cl)cc1Cl | 38.1 | 41 | 31.6 | 50.2 | > 100 | 72.4 | 44.2 | 20 | 17.2 | 14.9 | 22.7 | 23 | 22.3 | 18.1 | 56.8 |  |  | 13.7 | 39.6 | 24.2
9 | COC(=O)C(Cc1nc2ccccc2[nH]c1=O)/C(=N\NC(C)(C)C)C(=O)Nc1c(C)cc(Br)cc1C (stereo not drawn) | 44.5 | > 100 | 37 | 51.8 | 76.2 | > 100 |  |  |  |  |  |  |  |  |  |  |  |  |  | 
10 | Cc1cc([N+](=O)[O-])ccc1NC(=O)C(=O)C(C(=O)c1ccccc1-c1ccccc1)C1OC(=O)c2ccccc21 (stereo not drawn) | 21.7 | 67.8 | 29.9 | > 100 | 54.7 | 38.2 |  |  |  |  |  |  |  |  |  |  |  |  |  | 
11 | N#Cc1c(NC(=O)NCc2ccccc2)sc2c1CCCC2 | 4.68 | > 100 | > 100 | > 100 | > 100 | > 100 | 36 | 0.37 | 0.749 | 0.533 | 6.37 | 0.35 | 0.249 |  |  | 1.25 | > 100 | 0.404 | > 100 | 0.407
12 | C=C(C)C1CC/C(C)=C/CCC2(C)OC2CC/C(CO)=C\C1O (stereo not drawn) | > 100 | > 100 | > 100 | > 100 | > 100 | > 100 | > 100 |  |  |  |  |  |  |  | > 100 |  |  |  | 53.5 | 
13 | CC(C)N1CC2CN(Cc3ccccc3)CC(C1)C2=O | > 100 | > 100 | > 100 | > 100 | > 100 | > 100 | > 100 |  |  |  |  |  |  |  |  |  | > 100 |  | > 100 | 
14 | NCCCNc1nc2ccccc2c2c(=O)c3cc(F)cc(F)c3sc12 | 3.24 |  | 3.28 | 3.39 |  | 3.14 | 2.7 | 1.77 |  | 1.67 | 1.86 |  | 1.36 | 16.2 | 55.4 | 13 | 26.8 | 1.47 | 3.09 | 1.58
15 | C=CC(=O)NCCSCCCOC1(C(=O)O)CC(O)C(NC(C)=O)C(C(O)C(O)CO)O1 (stereo not drawn) | > 100 | > 100 | > 100 | > 100 | > 100 | > 100 |  |  |  |  |  |  |  |  |  |  |  |  |  | 
16 | CCN(CC)CC(C)(C)C(=O)/C=C/c1cccc(/C=C/C(=O)C(C)(C)CN(CC)CC)c1 | 2.27 | 2.23 | 1.24 | 2.75 | 1.68 | 2.31 | 1.19 |  |  |  |  |  |  |  |  |  |  |  |  | 
17 | CC1=Nc2ccccc2NC(c2ccoc2)C1 (stereo not drawn) | > 100 | > 100 | > 100 | > 100 | > 100 | > 100 | > 100 |  |  |  |  |  |  |  |  |  |  |  |  | 
18 | Nc1c(-c2cn(Cc3ccccc3)c3ccccc23)[n+]([O-])c2ccccc2[n+]1[O-] |  | > 100 |  | 91.8 |  | > 100 | 61.6 |  |  |  |  |  |  |  |  |  |  |  |  | 
19 | COc1cccc2ccc(C(=O)c3ccccc3)nc12 | > 100 | > 100 | > 100 | > 100 | > 100 |  | > 100 |  |  |  |  |  |  |  |  |  |  |  |  | 
20 | COc1c(O)c(OC)c2oc(-c3ccc(O)c(O)c3)c(OC)c(=O)c2c1O | > 100 | 25.7 | > 100 | > 100 | > 100 | > 100 | 11.5 |  |  |  |  |  |  |  | 33 |  | > 100 |  |  | 
21 | CC1=C(O)c2cn(C)cc2C(=O)C1=O | > 100 | > 100 | > 100 | > 100 | > 100 | > 100 | > 100 |  |  |  |  |  |  |  |  |  |  |  |  | 
22 | C[n+]1c(/C=C/c2c[nH]c3ccccc23)ccc2ccccc21 | 27.3 | 39.4 | 22.5 | 27.3 | 30 | 12.9 | 27.4 | 12.7 | 11 | 4.65 | 13.8 | 5.84 | 14.1 |  |  | 18.6 | 34.2 | 13.2 | 33.3 | 3.14
